Columns and labels:
[1] = system: 129S6/SvEv mice; test: Contextual fear conditioning (CFC) freezing; format: in vivo; details: for Freezing upon CFC re-exposure, (R,S)-ketamine versus saline: female mice, IP 10 mg/kg one week before CFC
Method: Saline, (R,S)-ketamine (10 mg/kg), or Bay 55-9837 (2.5 or 5 mg/kg) was administered 1 week prior to 3-shock contextual fear conditioning (CFC) stress in female 129S6/SvEv mice. Five days later, mice were assayed for fear, behavioral despair, locomotion, exploratory behavior, and hyponcophagia.
Male 129S6/SvEv mice were administered the same behavioral paradigm as described in Example 1. […] There was no effect of drug on immobility time during FST Day 1.
Female 129S6/SvEv mice were given a single injection of saline, (R,S)-ketamine (10 mg/kg), or Bay 55-9837 (2.5 mg/kg) 5 minutes after 3-shock CFC training.
Male 129S6/SvEv mice were administered the same behavioral paradigm as in Example 3. […] Similarly, in the NSF, Bay 55-9837, but not (R,S)-ketamine suppressed latency to feed in the OF when compared with saline controls.
Female 129S6/SEv mice were administered a single injection of saline of Bay 55-9837 (2.5 mg/kg) and placed in Piezo sleep boxes. One week later, mice were administered 3-shock CFC training or context exposure and again placed back into Piezo sleep boxes. Five days later, mice were re-exposed to the training context. […] During CFC training, there was no effect of drug. […] There was a significant effect of drug and stress as well as a drug x stress interaction.
Female 129S6/SvEv mice were administered an intracerebroventricular infusion of artificial cerebrospinal fluid, PACAP (6-38) (VPAC2 antagonist), or Bay 55-9837. Five minutes after, mice were given an IP injection of saline or (R,S)-ketamine (10 mg/kg). One week later, mice were administered 3-shock CFC training. Five days subsequently, mice were tested in CFC re-exposure and the FST. […] Upon CFC re-exposure, there was a significant group x drug interaction. […] In the PACAP (6-38) group, the prophylactic effect of (R,S)-ketamine was blocked.

[2] = system: 129S6/SvEv mice; test: Forced swim test (FST); format: in vivo; details: female mice
Method: Female 129S6/SvEv mice were administered an intracerebroventricular infusion of artificial cerebrospinal fluid, PACAP (6-38) (VPAC2 antagonist), or Bay 55-9837. Five minutes after, mice were given an IP injection of saline or (R,S)-ketamine (10 mg/kg). One week later, mice were administered 3-shock CFC training. Five days subsequently, mice were tested in CFC re-exposure and the FST. […] Upon CFC re-exposure, there was a significant group x drug interaction. […] In the PACAP (6-38) group, the prophylactic effect of (R,S)-ketamine was blocked. […]

| Compound | Freezing upon CFC re-exposure, (R,S)-ketamine versus saline ([1]; PACAP(6-38) ICV group) | Freezing upon CFC re-exposure, (R,S)-ketamine versus saline ([1]; Vehicle ICV group) | Freezing during CFC re-exposure ([1]; male mice, same paradigm as Example 3) | Freezing during CFC training ([1]; male mice, same paradigm as Example 3 (single injection 5 minutes after 3-shock CFC training)) | Behavioral despair on FST Day 2 ([2]; 1 week prior to 3-shock CFC stress, 10 mg/kg) | Immobility time on Day 2 of the FST ([2]; 5 minutes after 3-shock CFC training, 10 mg/kg) | Immobility on FST Day 2 compared with Vehicle/saline ([2]; ICV Vehicle then IP (R,S)-ketamine 10 mg/kg) | Prophylactic effect of (R,S)-ketamine on FST Day 2 ([2]; ICV PACAP (6-38) then IP (R,S)-ketamine 10 mg/kg) |
| --- | --- | --- | --- | --- | --- | --- | --- | --- |
| CNC1(c2ccccc2Cl)CCCCC1=O (racemic) [(R,S)-ketamine] | not significantly different | not significantly different | did not significantly alter | did not significantly alter | reduced | significantly reduced | significantly lower | – |
| PACAP (6-38) | – | – | – | – | – | – | – | blocked |

Reference: US20240238379A1, “Compositions and Methods for the Prevention and Treatment of Stress-Induced Fear, Depressive-Like and Anxiety-Like Behavior” (The Trustees of Columbia University in the City of New York, priority 2021, published 2024)
